Assay results from patent publication US20140370048A1, “COMPOSITION FOR TREATMENT OR PREVENTION OF HYPERLIPIDEMIA, CONTAINING ALCOHOL EXTRACTS OF OLIGOPORUS TEPHROLEUCUS” (POSTECH ACADEMY-INDUSTRY FOUNDATION, priority 2011, published 2014).

Test system: cholesterol absorption in the digestive tract
Assay: Amount of cholesterol absorption into blood from the digestive tract after oral 3H-cholesterol oleate in mice
Assay type: in vivo
Details: 8-week old male Balb/c mouse, plasma six hours after administration, extract 20 ml of 10 mg/mL concentrated into 0.1 mL, Orlistat 400 μg (20 mg/kg), FIG. 2
Experimental: Cholesterol oleate (Amersham, 100 μCi/mL) radiolabeled with ^3H was mixed with 1% (w/v) sodium carboxylmethyl cellulose (CMC-Na), 1% (v/v) Tween 80, and a non-labeled cholesterol oleate, and then 0.1 mL of the mixture was forcibly administered into each mouse through an oral zonde so that 1 μCi could be delivered to each mouse. Here, the mouse in the control group (an 8-week old male Balb/c with body weight of 25 g) was treated with 400 μg of Orlistat (20 mg/kg), which has an inhibitory effect against cholesterol absorption, and the mouse in the experimental group (an 8-week old male Balb/c with body weight of 25 g) was treated with 20 ml of the ethanol extract (10 mg/mL) of Oligoporus tephroleucus prepared in the Example after concentrating it into 0.1 mL. Six hours after the administration, blood samples were collected from the mice, and plasma was obtained by centrifuging the blood at […] at the rate of 14000 rpm, and the radioactive dose was measured by a liquid scintillator (Beta counter, Beckman LS1801). The Control group was not treated with anything that may inhibit the absorption of cholesterol. The amount of cholesterol absorption was determined as a relative value by dividing the radioactive dose of each group into the radioactive dose of the control group, in which the radioactive dose of the control group was set at ‘1’.

CCCCCCCCCCC[C@@H](C[C@@H]1OC(=O)[C@H]1CCCCCC)OC(=O)[C@H](CC(C)C)NC=O [Orlistat]
inhibitory effect upon the cholesterol absorption (plasma radioactive dose relative to untreated control set at 1): significant inhibitory effect
